Assay results reported in PubChem BioAssay (NCI).
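How tested: cells in 96-well plates exposed to compound for 48 hours at five concentrations. GI50 marks 50% less growth. TGI marks complete inhibition of growth.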

Columns and labels:
Assay in all cases: DTP human tumour cell line panel, 48 h
SK-OV-3 ovarian = system: SK-OV-3 ovarian
LOX IMVI melanoma = system: LOX IMVI melanoma
HCT-116 colon = system: HCT-116 colon
SK-MEL-5 melanoma = system: SK-MEL-5 melanoma
HT29 colon = system: HT29 colon
SF-268 CNS = system: SF-268 CNS
OVCAR-5 ovarian = system: OVCAR-5 ovarian
DMS 114 small cell lung = system: DMS 114 small cell lung
MALME-3M melanoma = system: MALME-3M melanoma
KM20L2 colon = system: KM20L2 colon
RXF 393 renal = system: RXF 393 renal
COLO 205 colon = system: COLO 205 colon
ACHN renal = system: ACHN renal
RPMI-8226 leukemia = system: RPMI-8226 leukemia
OVCAR-4 ovarian = system: OVCAR-4 ovarian
SF-295 CNS = system: SF-295 CNS
OVCAR-8 ovarian = system: OVCAR-8 ovarian
HCC-2998 colon = system: HCC-2998 colon
TK-10 renal = system: TK-10 renal
A549 NSCLC = system: A549 NSCLC
CCRF-CEM leukemia = system: CCRF-CEM leukemia
XF 498 CNS = system: XF 498 CNS
SNB-75 CNS = system: SNB-75 CNS
NCI-H522 lung = system: NCI-H522 lung
DLD-1 colon = system: DLD-1 colon
EKVX NSCLC = system: EKVX NSCLC
A498 renal = system: A498 renal
UACC-257 melanoma = system: UACC-257 melanoma
SNB-19 CNS = system: SNB-19 CNS
M14 melanoma = system: M14 melanoma
UACC-62 melanoma = system: UACC-62 melanoma
SR leukemia = system: SR leukemia
NCI-H460 lung = system: NCI-H460 lung
U251 CNS = system: U251 CNS
UO-31 renal = system: UO-31 renal
HOP-18 NSCLC = system: HOP-18 NSCLC
SK-MEL-28 melanoma = system: SK-MEL-28 melanoma
SW-620 colon = system: SW-620 colon
K-562 leukemia = system: K-562 leukemia
IGROV1 ovarian = system: IGROV1 ovarian
MOLT-4 leukemia = system: MOLT-4 leukemia
786-0 renal = system: 786-0 renal
NCI-H23 lung = system: NCI-H23 lung
SK-MEL-2 melanoma = system: SK-MEL-2 melanoma
LXFL 529 NSCLC = system: LXFL 529 NSCLC
HOP-92 NSCLC = system: HOP-92 NSCLC
HCT-15 colon = system: HCT-15 colon
CAKI-1 renal = system: CAKI-1 renal
HL-60(TB) leukemia = system: HL-60(TB) leukemia
SN12C renal = system: SN12C renal
KM12 colon = system: KM12 colon
DMS 273 small cell lung = system: DMS 273 small cell lung
HOP-62 NSCLC = system: HOP-62 NSCLC
NCI-H226 lung = system: NCI-H226 lung
SF-539 CNS = system: SF-539 CNS
SNB-78 CNS = system: SNB-78 CNS
OVCAR-3 ovarian = system: OVCAR-3 ovarian
M19-MEL melanoma = system: M19-MEL melanoma

## Cc1c(/C=N/N(C)C)oc2c1cc(O)c1ncccc12
SK-OV-3 ovarian
  TGI: 71.7 µM
LOX IMVI melanoma
  TGI: 45.2 µM
HCT-116 colon
  TGI: > 100 µM
SK-MEL-5 melanoma
  TGI: 39.3 µM
HT29 colon
  TGI: > 100 µM
SF-268 CNS
  TGI: > 100 µM
OVCAR-5 ovarian
  TGI: > 100 µM
DMS 114 small cell lung
  TGI: 8.59 µM
MALME-3M melanoma
  TGI: 84.5 µM
KM20L2 colon
  TGI: > 100 µM
RXF 393 renal
  TGI: 58.6 µM
COLO 205 colon
  TGI: > 100 µM
ACHN renal
  TGI: > 100 µM
RPMI-8226 leukemia
  TGI: > 100 µM
OVCAR-4 ovarian
  TGI: 96.6 µM
SF-295 CNS
  TGI: 97.9 µM
OVCAR-8 ovarian
  TGI: 74.2 µM
HCC-2998 colon
  TGI: > 100 µM
TK-10 renal
  TGI: > 100 µM
A549 NSCLC
  TGI: > 100 µM
CCRF-CEM leukemia
  TGI: 7.26 µM
XF 498 CNS
  TGI: > 100 µM
SNB-75 CNS
  TGI: 86.6 µM
NCI-H522 lung
  TGI: 8.58 µM
DLD-1 colon
  TGI: > 100 µM
EKVX NSCLC
  TGI: 6.37 µM
A498 renal
  TGI: 82 µM
UACC-257 melanoma
  TGI: > 100 µM
SNB-19 CNS
  TGI: > 100 µM
M14 melanoma
  TGI: 14.9 µM
UACC-62 melanoma
  TGI: 45.9 µM
SR leukemia
  TGI: 40.4 µM
NCI-H460 lung
  TGI: 41 µM
U251 CNS
  TGI: > 100 µM
UO-31 renal
  TGI: 7.12 µM
HOP-18 NSCLC
  TGI: 16 µM
SK-MEL-28 melanoma
  TGI: > 100 µM
SW-620 colon
  TGI: > 100 µM
K-562 leukemia
  TGI: > 100 µM
IGROV1 ovarian
  TGI: 55.7 µM
MOLT-4 leukemia
  TGI: 16.8 µM
786-0 renal
  TGI: > 100 µM
NCI-H23 lung
  TGI: > 100 µM
SK-MEL-2 melanoma
  TGI: 44.5 µM
LXFL 529 NSCLC
  TGI: > 100 µM
HOP-92 NSCLC
  TGI: 76.8 µM
HCT-15 colon
  TGI: > 100 µM
CAKI-1 renal
  TGI: 22.4 µM
HL-60(TB) leukemia
  TGI: 6.46 µM
SN12C renal
  TGI: 96.4 µM
KM12 colon
  TGI: > 100 µM
DMS 273 small cell lung
  TGI: 37.7 µM
HOP-62 NSCLC
  TGI: > 100 µM
NCI-H226 lung
  TGI: 48.9 µM

## Cc1cc(=O)[nH]c(NN2C(Cl)C(=O)C2c2cccc(Cl)c2)n1 (configuration not stated)
LOX IMVI melanoma
  TGI: 32.8 µM
SK-MEL-5 melanoma
  TGI: 34.2 µM
HT29 colon
  TGI: 76.8 µM
SF-268 CNS
  TGI: 98.1 µM
OVCAR-5 ovarian
  TGI: > 100 µM
DMS 114 small cell lung
  TGI: 54.8 µM
KM20L2 colon
  TGI: > 100 µM
RXF 393 renal
  TGI: 23.2 µM
ACHN renal
  TGI: > 100 µM
RPMI-8226 leukemia
  TGI: 34.8 µM
OVCAR-4 ovarian
  TGI: 97 µM
OVCAR-8 ovarian
  TGI: > 100 µM
HCC-2998 colon
  TGI: 98.9 µM
TK-10 renal
  TGI: > 100 µM
A549 NSCLC
  TGI: > 100 µM
CCRF-CEM leukemia
  TGI: 41.7 µM
SNB-75 CNS
  TGI: 62.8 µM
EKVX NSCLC
  TGI: > 100 µM
UACC-257 melanoma
  TGI: > 100 µM
SNB-19 CNS
  TGI: 92.6 µM
M14 melanoma
  TGI: 35.4 µM
UACC-62 melanoma
  TGI: 87.2 µM
SR leukemia
  TGI: 44.3 µM
NCI-H460 lung
  TGI: 43.2 µM
U251 CNS
  TGI: > 100 µM
UO-31 renal
  TGI: 87.6 µM
HOP-18 NSCLC
  TGI: 55.2 µM
SK-MEL-28 melanoma
  TGI: > 100 µM
SW-620 colon
  TGI: > 100 µM
SF-539 CNS
  TGI: 39.4 µM
K-562 leukemia
  TGI: 65.8 µM
IGROV1 ovarian
  TGI: 37.1 µM
MOLT-4 leukemia
  TGI: 40.7 µM
NCI-H23 lung
  TGI: 58.2 µM
SK-MEL-2 melanoma
  TGI: 35.8 µM
HOP-92 NSCLC
  TGI: 41.5 µM
HCT-15 colon
  TGI: 40.9 µM
HL-60(TB) leukemia
  TGI: 40.4 µM
SN12C renal
  TGI: 62 µM
KM12 colon
  TGI: 67 µM
SNB-78 CNS
  TGI: 79.3 µM
DMS 273 small cell lung
  TGI: 33.9 µM
HOP-62 NSCLC
  TGI: > 100 µM
OVCAR-3 ovarian
  TGI: 51.1 µM
M19-MEL melanoma
  TGI: > 100 µM

## CC(=O)[CH-]C(=O)c1ccccc1.CC(=O)[CH-]C(=O)c1ccccc1.C[C@]12CCC(=O)C=C1CC[C@@H]1C2CC[C@@]2(C)C1CC[C@]2(C)[O-].C[C@]12CCC(=O)C=C1CC[C@@H]1C2CC[C@@]2(C)C1CC[C@]2(C)[O-].Cl.[Ti+4] (some centres not stated)
SK-OV-3 ovarian
  GI50: 23.4 µM
  TGI: 53.1 µM
LOX IMVI melanoma
  GI50: 18.6 µM
  TGI: 48.8 µM
HCT-116 colon
  GI50: 22.2 µM
  TGI: > 100 µM
HT29 colon
  GI50: 16.3 µM
  TGI: 76 µM
SF-268 CNS
  GI50: 20.7 µM
  TGI: 75.2 µM
OVCAR-5 ovarian
  GI50: 16.5 µM
  TGI: > 100 µM
MALME-3M melanoma
  GI50: 13.2 µM
  TGI: 37.1 µM
COLO 205 colon
  GI50: 37.6 µM
  TGI: > 100 µM
ACHN renal
  GI50: 21.6 µM
  TGI: 87.8 µM
RPMI-8226 leukemia
  GI50: 15.4 µM
  TGI: > 100 µM
OVCAR-4 ovarian
  GI50: 42.7 µM
  TGI: > 100 µM
SF-295 CNS
  GI50: 18.4 µM
  TGI: 57.3 µM
OVCAR-8 ovarian
  GI50: 20.4 µM
  TGI: 77.5 µM
HCC-2998 colon
  GI50: 17.3 µM
  TGI: 41.7 µM
TK-10 renal
  GI50: 34.2 µM
  TGI: > 100 µM
A549 NSCLC
  GI50: 16.1 µM
  TGI: 40.3 µM
CCRF-CEM leukemia
  GI50: 9.78 µM
  TGI: > 100 µM
SNB-75 CNS
  GI50: 15.7 µM
  TGI: 43.7 µM
NCI-H522 lung
  GI50: 11.4 µM
  TGI: 35.7 µM
DLD-1 colon
  GI50: 12.2 µM
  TGI: 40.9 µM
EKVX NSCLC
  GI50: 17.3 µM
  TGI: 44.7 µM
A498 renal
  GI50: 15.3 µM
  TGI: 31.1 µM
UACC-257 melanoma
  GI50: 18 µM
  TGI: 51.7 µM
SNB-19 CNS
  GI50: 14 µM
  TGI: 29.3 µM
M14 melanoma
  GI50: 24.2 µM
  TGI: 83.6 µM
UACC-62 melanoma
  GI50: 12.8 µM
  TGI: 42.9 µM
NCI-H460 lung
  GI50: 16.4 µM
  TGI: 49.9 µM
U251 CNS
  GI50: 15.2 µM
  TGI: 54.2 µM
UO-31 renal
  GI50: 24.2 µM
  TGI: 85.3 µM
HOP-18 NSCLC
  GI50: 40 µM
  TGI: > 100 µM
SK-MEL-28 melanoma
  GI50: 11.5 µM
  TGI: 43 µM
SW-620 colon
  GI50: 3.91 µM
  TGI: 30 µM
SF-539 CNS
  GI50: 13.9 µM
  TGI: 29.3 µM
K-562 leukemia
  GI50: 3.76 µM
  TGI: > 100 µM
IGROV1 ovarian
  GI50: 19.3 µM
  TGI: 46.1 µM
MOLT-4 leukemia
  GI50: 12.5 µM
  TGI: > 100 µM
NCI-H23 lung
  GI50: 14.2 µM
  TGI: 35.2 µM
SK-MEL-2 melanoma
  GI50: 13.9 µM
  TGI: 33.2 µM
LXFL 529 NSCLC
  GI50: 20.7 µM
  TGI: 76.4 µM
HCT-15 colon
  GI50: 6.49 µM
  TGI: 52.4 µM
CAKI-1 renal
  GI50: 13.3 µM
  TGI: 38.4 µM
HL-60(TB) leukemia
  GI50: 2.87 µM
  TGI: 13.1 µM
SN12C renal
  GI50: 18.7 µM
  TGI: 49.5 µM
KM12 colon
  GI50: 13.5 µM
  TGI: 71.3 µM
DMS 273 small cell lung
  GI50: 17.4 µM
  TGI: 89.9 µM
HOP-62 NSCLC
  GI50: 24.1 µM
  TGI: 62.7 µM
OVCAR-3 ovarian
  GI50: 27.9 µM
  TGI: > 100 µM
NCI-H226 lung
  GI50: 14.4 µM
  TGI: 56.1 µM
M19-MEL melanoma
  GI50: 26.5 µM
  TGI: > 100 µM
